These results are taken from PMC10434227 (Microbiology Spectrum, 2023).

Data set [1] can be described thus: in vitro. Conditions: human.
Data set [2] has as its system MPXV USA-2003 (NR-2500) clade II. In words: microbe, parasite or virus in culture. The class given is cell-based, monkeypox virus (MPXV).
The subject of data set [3] is rVACV Nluc/GFP. In words: microbe, parasite or virus in culture. Type of data set: cell-based, vaccinia virus (VACV).
A short description of data set [4]: in vitro. Conditions: human. The source holds these as a separate data set.
Data set [5] deals with rVACV Nluc/Scarlet. In words: microbe, parasite or virus in culture. The class given is cell-based, vaccinia virus (VACV).
The test system of data set [6] is A549 cells.
Data set [7] relates to A549 cells. The source holds these as a separate data set.
Where [8] appears, read: Monkeypox virus, A549, read-out: EC50 against MPXV.
Where [9] appears, read: Orthopoxvirus vaccinia, A549, read-out: EC50 FP (GFP fluorescence).
Where [10] appears, read: Orthopoxvirus vaccinia, A549, read-out: EC50 Nluc.
The mark [11] stands for this setting: Orthopoxvirus vaccinia, A549, read-out: EC50 FP (Scarlet fluorescence).
Setting [12] is: read-out: EC50 FP (GFP fluorescence).
[13] abbreviates: read-out: EC50 FP (Scarlet fluorescence).

Counter-ions that a name gives are not always drawn. Like-named read-outs stand apart in the source and are kept apart here.

With `CC[C@H](CC#N)OC(=O)N[C@@H](C)c1cccc(NC(=O)Nc2ccc(-c3cnco3)c(OC)c2)c1` [AVN-944], the CC50 in data set [1] and in data set [4] was above 50000 nM each time. Moreover, the EC50 came to 170 nM in data set [2] (setting [8]); 70 nM in data set [3] (setting [9]); 70 nM in data set [3] (setting [10]); 130 nM in data set [5] (setting [11]); 110 nM in data set [5] (setting [10]).
Consider 2,2′-bi-1H-benzimidazole, for which the CC50 in data set [6] and in data set [7] was above 50000 nM each time. In data set [2], the “inhibitory activity against MPXV (in words)” value is “did not inhibit MPXV infection”. For the same molecule, the EC50 in data set [2] (read-out: EC50 against MPXV), in data set [3] (setting [12]), in data set [3] (read-out: EC50 Nluc), in data set [5] (setting [13]) and in data set [5] (read-out: EC50 Nluc) was above 50000 nM throughout.
`FC(F)(F)c1ccc(/C=C/c2nc(COc3ccc(CCCCn4ccnn4)cc3)co2)cc1` [Mubritinib, mubritinib]: the EC50 in data set [2] (setting [8]) was found to be 38 nM; in data set [3] (setting [9]), 65 nM; in data set [3] (setting [10]), 33 nM; in data set [5] (setting [11]) it was 50 nM; in data set [5] (setting [10]), 37 nM; in data set [5] (setting [13]) it was 93 nM.
As for `CO/C=C(/C(=O)OC)c1ccccc1Oc1cc(Oc2ccccc2C#N)ncn1` [Azoxystrobin, azoxystrobin], the CC50 in data set [6] was above 450000 nM; in data set [7] it was 27900 nM. In addition, the concentration giving a half-maximal response (EC50) in data set [2] (read-out: EC50 against MPXV) came out at 10800 nM; in data set [3] (setting [12]), 7850 nM; in data set [3] (read-out: EC50 Nluc), 6120 nM; in data set [5] (setting [13]), 7920 nM; in data set [5] (read-out: EC50 Nluc), 6100 nM.
`CC[C@@]1([C@@H]2O[C@@H]([C@H]3O[C@@](O)(CO)[C@H](C)C[C@@H]3C)C[C@@H]2C)CC[C@H]([C@]2(C)CC[C@]3(C[C@H](O)[C@@H](C)[C@@H]([C@@H](C)[C@@H](OC)[C@H](C)C(=O)O)O3)O2)O1` [Monensin, monensin sodium salt]: the CC50 in data set [1] and in data set [4] was above 50000 nM in each case. In addition, the EC50 turned out to be 50 nM in data set [2] (setting [8]); 80 nM in data set [3] (setting [9]); 130 nM in data set [3] (setting [10]); 70 nM in data set [5] (setting [11]); 80 nM in data set [5] (setting [10]).
On to `C=C(C)[C@H]1Cc2c(ccc3c2O[C@@H]2COc4cc(OC)c(OC)cc4[C@@H]2C3=O)O1` [Rotenone, rotenone], for which the concentration for a half-maximal effect (EC50) in data set [2] (setting [8]) amounted to 7 nM; in data set [3] (setting [9]), 10 nM; in data set [3] (setting [10]) it was 7 nM; in data set [5] (setting [11]), 15 nM; in data set [5] (setting [10]), 8 nM.
Regarding `COc1c(C)c2c(c(O)c1C/C=C(\C)CCC(=O)OCCN1CCOCC1)C(=O)OC2` [Mycophenolate mofetil, mycophenolate mofetil], the CC50 in data set [1] and in data set [4] was above 150000 nM in each case. The half-maximal effective concentration (EC50) turned out to be 1060 nM in data set [2] (setting [8]); 1960 nM in data set [2] (read-out: EC50 against MPXV); 870 nM in data set [3] (setting [9]); 800 nM in data set [3] (setting [10]); 930 nM in data set [3] (read-out: EC50 Nluc); 1200 nM in data set [5] (setting [11]). The 50% effective concentration (EC50) in data set [5] (setting [10]) is 1040 nM.
In the case of `Cc1c(-c2ccc(-c3ccccc3F)cc2)nc2ccc(F)cc2c1C(=O)O` [Brequinar, brequinar sodium salt hydrate], the CC50 in data set [1] and in data set [4] was above 50000 nM each time. For the same molecule, the EC50 in data set [2] (setting [8]) is 160 nM; in data set [3] (setting [9]) it was 180 nM; in data set [3] (setting [10]), below 40 nM; in data set [3] (read-out: EC50 Nluc), 40 nM; in data set [5] (setting [11]), 120 nM; in data set [5] (setting [10]) it was 110 nM.
`S=C(NCc1ccc2c(c1)OCO2)N1CCN(c2ncnc3c2oc2ccccc23)CC1` [Amuvatinib, amuvatinib]: the EC50 in data set [2] (setting [8]) stood at 3470 nM; in data set [3] (setting [9]), 3260 nM; in data set [3] (setting [10]) it was 3890 nM; in data set [5] (setting [11]) it was 4760 nM; in data set [5] (setting [10]), 6830 nM; in data set [5] (read-out: EC50 Nluc) it was 6630 nM.
`CC[C@@H](C(=O)O)[C@@H]1O[C@@H]([C@@H](C)[C@H](O)[C@H](C)C(=O)[C@H](CC)[C@H]2O[C@]3(C=C[C@@H](O)[C@]4(CC[C@@](C)([C@H]5CC[C@](O)(CC)[C@H](C)O5)O4)O3)[C@H](C)C[C@@H]2C)[C@@H](C)C[C@@H]1C` [Narasin, narasin sodium salt]: the 50% effective concentration (EC50) in data set [2] (setting [8]) was 50 nM; in data set [3] (setting [9]), 10 nM; in data set [3] (setting [10]) it was 30 nM; in data set [5] (setting [11]), 20 nM; in data set [5] (setting [10]), 20 nM.
